The record followed here is ChEMBL document CHEMBL1909046, “DrugMatrix in vitro pharmacology data”.

One assay has as its target T1, Leukotriene C4 synthase (Cavia porcellus, UniProt A6XA80).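 Further: enzyme inhibition assay of leukotriene C4 synthase, using LTA4 as the substrate; in other assays of this panel Not Active means under 50% inhibition at 10 µM.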
T1 sequence (A6XA80 whole entry): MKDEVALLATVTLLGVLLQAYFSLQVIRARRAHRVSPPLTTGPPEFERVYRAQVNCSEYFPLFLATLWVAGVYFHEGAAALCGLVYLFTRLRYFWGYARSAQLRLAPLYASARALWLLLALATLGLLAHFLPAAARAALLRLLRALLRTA
Type of assay: tissue-based, Lung.

A short description of assay [1]: DRUGMATRIX: Phorbol Ester radioligand binding (ligand: [3H] PDBu). Format: cell membranes, Mus musculus, ICR, Brain, Membrane. The following applies: Not Active = under 50% inhibition at 10 µM.
In assay [2] the target is Tyrosine-protein kinase Lck (Homo sapiens, UniProt P06239). Description: DRUGMATRIX: Protein Tyrosine Kinase, LCK enzyme inhibition (substrate: Poly(Glu:Tyr)). The settings on record: Not Active = under 50% inhibition at 10 µM. Format: cell-based, Insect cells.
Sequence of Tyrosine-protein kinase Lck (P06239 whole entry): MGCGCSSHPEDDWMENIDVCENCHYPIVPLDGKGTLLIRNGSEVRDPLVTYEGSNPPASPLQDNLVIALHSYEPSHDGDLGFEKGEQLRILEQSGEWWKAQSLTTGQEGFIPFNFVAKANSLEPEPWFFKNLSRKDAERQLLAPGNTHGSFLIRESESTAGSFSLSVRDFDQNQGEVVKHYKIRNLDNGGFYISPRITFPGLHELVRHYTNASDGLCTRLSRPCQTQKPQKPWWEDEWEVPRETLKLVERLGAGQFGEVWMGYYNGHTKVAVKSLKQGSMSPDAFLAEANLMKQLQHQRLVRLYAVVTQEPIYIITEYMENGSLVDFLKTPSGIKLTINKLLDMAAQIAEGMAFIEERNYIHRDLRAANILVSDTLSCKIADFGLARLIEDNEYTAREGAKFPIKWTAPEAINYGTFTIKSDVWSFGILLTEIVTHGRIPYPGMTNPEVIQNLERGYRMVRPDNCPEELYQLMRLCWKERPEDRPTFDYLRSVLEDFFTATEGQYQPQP
For the next assay, the target named is Estrogen receptor beta (Homo sapiens, UniProt Q92731). The following applies: sf9. Further: in other assays of this panel Not Active means under 50% inhibition at 10 µM.
Sequence of Estrogen receptor beta (Q92731 whole entry): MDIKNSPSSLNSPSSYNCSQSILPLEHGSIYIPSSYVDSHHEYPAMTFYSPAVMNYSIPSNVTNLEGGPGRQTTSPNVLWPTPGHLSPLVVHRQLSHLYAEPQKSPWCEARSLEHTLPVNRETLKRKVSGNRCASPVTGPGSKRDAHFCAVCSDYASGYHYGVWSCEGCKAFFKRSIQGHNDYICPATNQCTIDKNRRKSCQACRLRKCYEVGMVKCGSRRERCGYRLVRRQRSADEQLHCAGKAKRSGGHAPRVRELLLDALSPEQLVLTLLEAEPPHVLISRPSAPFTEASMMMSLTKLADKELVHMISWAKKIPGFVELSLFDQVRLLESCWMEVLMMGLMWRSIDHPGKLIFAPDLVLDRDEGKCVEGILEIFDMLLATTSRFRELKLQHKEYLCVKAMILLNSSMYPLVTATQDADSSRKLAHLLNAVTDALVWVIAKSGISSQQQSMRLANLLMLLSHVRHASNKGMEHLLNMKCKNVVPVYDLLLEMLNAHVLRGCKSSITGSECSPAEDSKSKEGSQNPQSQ
For assay [3], the target named is Beta-3 adrenergic receptor (Homo sapiens, UniProt P13945). Description: DRUGMATRIX: Adrenergic beta3 radioligand binding (ligand: [125I] Cyanopindolol). Type of assay: cell membranes, HEK293, Membrane. The following applies: hek293; Not Active = under 50% inhibition at 10 µM.
Sequence of Beta-3 adrenergic receptor (P13945 whole entry): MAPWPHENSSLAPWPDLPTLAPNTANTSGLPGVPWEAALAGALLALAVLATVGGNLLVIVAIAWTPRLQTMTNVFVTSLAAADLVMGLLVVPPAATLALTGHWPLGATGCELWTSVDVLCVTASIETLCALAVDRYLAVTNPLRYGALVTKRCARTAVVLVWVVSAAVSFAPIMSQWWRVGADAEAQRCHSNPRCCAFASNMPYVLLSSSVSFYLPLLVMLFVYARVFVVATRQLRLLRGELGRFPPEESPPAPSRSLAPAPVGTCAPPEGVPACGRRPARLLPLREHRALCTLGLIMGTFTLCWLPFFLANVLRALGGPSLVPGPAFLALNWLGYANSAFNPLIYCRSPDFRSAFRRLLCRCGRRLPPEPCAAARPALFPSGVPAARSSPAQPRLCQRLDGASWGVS
A short description of assay [4]: DRUGMATRIX: GABAA, Muscimol, Central radioligand binding (ligand: [3H] Muscimol). Type of assay: cell membranes, Rattus norvegicus, Wistar, Brain, Membrane. The settings on record: Not Active = under 50% inhibition at 10 µM.
Assay [5] concerns the target T2, Alpha-2C adrenergic receptor (Homo sapiens, UniProt P18825).
T2 sequence (P18825 whole entry): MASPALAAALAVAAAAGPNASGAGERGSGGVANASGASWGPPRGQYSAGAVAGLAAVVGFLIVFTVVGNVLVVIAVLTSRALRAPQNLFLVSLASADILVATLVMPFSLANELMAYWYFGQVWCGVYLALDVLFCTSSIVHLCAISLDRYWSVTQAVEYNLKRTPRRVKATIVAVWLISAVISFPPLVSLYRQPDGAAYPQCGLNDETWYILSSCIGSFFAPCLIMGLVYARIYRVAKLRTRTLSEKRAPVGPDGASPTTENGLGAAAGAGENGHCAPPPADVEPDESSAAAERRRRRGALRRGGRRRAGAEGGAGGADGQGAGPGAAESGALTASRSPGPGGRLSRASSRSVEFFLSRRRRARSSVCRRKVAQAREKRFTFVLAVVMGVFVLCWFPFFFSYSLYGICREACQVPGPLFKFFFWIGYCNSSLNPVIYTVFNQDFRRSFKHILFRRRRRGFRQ
Nature of the assay: DRUGMATRIX: Adrenergic Alpha-2C radioligand binding (ligand: [3H] MK-912). Type of assay: cell membranes, Sf9, Membrane.

With `C[C@]12C=CC(=O)C=C1CC[C@@H]1[C@@H]2[C@@H](O)C[C@@]2(C)[C@H]1CC[C@]2(O)C(=O)CO` [PREDNISOLONE], the IC50 entry (against Leukotriene C4 synthase; in assay [1]; in assay [2] (insect cells); at Estrogen receptor beta; in assay [3]; in assay [4]) was “Not Active” throughout. Further, the half-maximal inhibitory concentration (IC50) (commonly the midpoint of a concentration-inhibition curve) in assay [5] (sf9) is reported as “Not Active”. The Ki result in assay [1] and in assay [4] was “Not Active” throughout.

As to `NCCCC(O)(P(=O)(O)O)P(=O)(O)O` [ALENDRONIC ACID], the IC50 result (against Leukotriene C4 synthase; in assay [1]; in assay [2] (insect cells); against Estrogen receptor beta; in assay [3]; in assay [4]) was “Not Active” each time. For the same compound, the IC50 result in assay [5] (sf9) is “Not Active”. Also, the Ki entry in assay [1] and in assay [4] was “Not Active” each time.

Take `O=C1O[C@H]([C@@H](O)CO)C(O)=C1O` [ASCORBIC ACID]: the IC50 result (against Leukotriene C4 synthase; in assay [1]; in assay [2] (insect cells); at Estrogen receptor beta; in assay [3]; in assay [4]) was “Not Active” throughout. Also, in assay [5] (sf9), the IC50 result is listed as “Not Active”. The inhibition constant (Ki) result in assay [1] and in assay [4] was “Not Active” each time.

As to `C[n+]1ccccc1/C=N/O.[Cl-]` [PRALIDOXIME CHLORIDE], the IC50 entry (on Leukotriene C4 synthase; in assay [1]; in assay [2] (insect cells); against Estrogen receptor beta; in assay [3]; in assay [4]) was “Not Active” in each case. In addition, the half-inhibitory concentration (IC50) result in assay [5] (sf9) was “Not Active”. Moreover, the inhibitory constant (Ki) entry in assay [1] and in assay [4] was “Not Active” each time.

Take `COc1ccc2c3c1O[C@H]1C[C@@H](O)C=C[C@@]31CCN(C)C2` [GALANTAMINE]: the IC50 result (against Leukotriene C4 synthase; in assay [1]; in assay [2] (insect cells); on Estrogen receptor beta; in assay [3]; in assay [4]) was “Not Active” each time. The 50% inhibitory concentration (IC50) result in assay [5] (sf9) is “Not Active”. Also, the inhibition constant (Ki) result in assay [1] and in assay [4] was “Not Active” in each case.

In the case of `COC1=C(OC)C(=O)C(CCCCCCCCCCO)=C(C)C1=O` [IDEBENONE], the IC50 entry (against Leukotriene C4 synthase; in assay [1]; in assay [2] (insect cells); against Estrogen receptor beta; in assay [3]; in assay [4]) was “Not Active” each time. In addition, in assay [5] (sf9), the IC50 result is “Not Active”. For the same compound, the Ki entry in assay [1] and in assay [4] was “Not Active” each time.

With `CCC1(CCC(C)C)C(=O)NC(=O)NC1=O` [AMOBARBITAL], the concentration for half-maximal inhibition (IC50) result (against Leukotriene C4 synthase; in assay [1]; in assay [2] (insect cells); against Estrogen receptor beta; in assay [3]; in assay [4]) was “Not Active” in each case. Besides, the IC50 entry in assay [5] (sf9) is on record as “Not Active”. The Ki result in assay [1] and in assay [4] was “Not Active” throughout.

On to `COc1ccc2[nH]cc(CCNC(C)=O)c2c1` [MELATONIN], for which the IC50 entry (against Leukotriene C4 synthase; in assay [1]; in assay [2] (insect cells); against Estrogen receptor beta; in assay [3]; in assay [4]) was “Not Active” throughout. Besides, the IC50 entry in assay [5] (sf9) is on record as “Not Active”. Moreover, the inhibition constant Ki entry in assay [1] and in assay [4] was “Not Active” each time.

For the compound `CC(=O)O[C@H]1C(=O)[C@@]2(C)[C@H]([C@H](OC(=O)c3ccccc3)[C@]3(O)C[C@H](OC(=O)[C@H](O)[C@@H](NC(=O)c4ccccc4)c4ccccc4)C(C)=C1C3(C)C)[C@]1(OC(C)=O)CO[C@@H]1C[C@@H]2O` [PACLITAXEL], the IC50 result (against Leukotriene C4 synthase; in assay [1]; in assay [2] (insect cells); on Estrogen receptor beta; in assay [3]; in assay [4]) was “Not Active” throughout. The IC50 result in assay [5] (sf9) is on record as “Not Active”. Also, the inhibition constant (Ki) entry in assay [1] and in assay [4] was “Not Active” in each case.

For the compound `Cn1c(=O)c2c(ncn2CC(O)CO)n(C)c1=O` (configuration not stated) [DYPHYLLINE], the IC50 result (against Leukotriene C4 synthase; in assay [1]; in assay [2] (insect cells); against Estrogen receptor beta; in assay [3]; in assay [4]) was “Not Active” throughout. The half-maximal inhibitory concentration (IC50) entry in assay [5] (sf9) is listed as “Not Active”. Also, the inhibition constant (Ki) entry in assay [1] and in assay [4] was “Not Active” in each case.

Consider `CN(C)[C@@H]1C(O)=C(C(N)=O)C(=O)[C@@]2(O)C(O)=C3C(=O)c4c(O)ccc(Cl)c4[C@@](C)(O)[C@H]3C[C@@H]12` [CHLORTETRACYCLINE], for which the IC50 result (against Leukotriene C4 synthase; in assay [1]; in assay [2] (insect cells); against Estrogen receptor beta; in assay [3]; in assay [4]) was “Not Active” in each case. Also, the 50% inhibitory concentration (IC50) entry in assay [5] (sf9) is listed as “Not Active”. Also, the Ki result in assay [1] and in assay [4] was “Not Active” throughout.

Regarding `C[C@H]1O[C@@H](n2cc(F)c(=O)[nH]c2=O)[C@H](O)[C@@H]1O` [DOXIFLURIDINE], the IC50 entry (against Leukotriene C4 synthase; in assay [1]; in assay [2] (insect cells); against Estrogen receptor beta; in assay [3]; in assay [4]) was “Not Active” throughout. Moreover, in assay [5] (sf9), the half-inhibitory concentration (IC50) result was “Not Active”. The Ki entry in assay [1] and in assay [4] was “Not Active” throughout.

`CC(C(=O)O)c1ccc2oc(-c3ccc(Cl)cc3)nc2c1` (configuration not stated) [BENOXAPROFEN]: the IC50 entry (on Leukotriene C4 synthase; in assay [1]; in assay [2] (insect cells); on Estrogen receptor beta; in assay [3]; in assay [4]) was “Not Active” throughout. In addition, the IC50 entry in assay [5] (sf9) was “Not Active”. Besides, the inhibitory constant (Ki) result in assay [1] and in assay [4] was “Not Active” throughout.

As for `Oc1c(Cl)cc(Cl)c(Cl)c1Cc1c(O)c(Cl)cc(Cl)c1Cl` [HEXACHLOROPHENE], the IC50 entry against Leukotriene C4 synthase was “Not Active”; in assay [1], “Not Active”; in assay [2] (read-out: IC50), 2430 nM; against Estrogen receptor beta, “Not Active”; in assay [3], “Not Active”; in assay [4], “Not Active”. Also, in assay [5] (read-out: IC50), the IC50 was 6980 nM. The results for the Ki entry in assay [1], in assay [4] and in assay [5] (read-out: Ki) were “Not Active”, “Not Active” and 1010 nM, respectively.

As for `C#C[C@]1(OC(C)=O)CC[C@H]2[C@@H]3CCC4=C[C@@H](OC(C)=O)CC[C@@H]4[C@H]3CC[C@@]21C` [ETHYNODIOL DIACETATE], the concentration for half-maximal inhibition (IC50) result (at Leukotriene C4 synthase; in assay [1]; in assay [2] (insect cells); at Estrogen receptor beta; in assay [3]; in assay [4]) was “Not Active” throughout. For the same compound, the IC50 entry in assay [5] (sf9) was “Not Active”. The Ki entry in assay [1] and in assay [4] was “Not Active” each time.

Take `CCC(=O)O[C@]1(C(=O)CCl)[C@@H](C)C[C@H]2[C@@H]3CCC4=CC(=O)C=C[C@]4(C)[C@@]3(F)[C@@H](O)C[C@@]21C` [CLOBETASOL PROPIONATE]: the IC50 entry (on Leukotriene C4 synthase; in assay [1]; in assay [2] (insect cells); on Estrogen receptor beta; in assay [3]; in assay [4]) was “Not Active” each time. Besides, in assay [5] (sf9), the 50% inhibitory concentration (IC50) entry is reported as “Not Active”. Moreover, the Ki entry in assay [1] and in assay [4] was “Not Active” each time.

As to `C[C@@H](CO)NC(=O)[C@@H]1C=C2c3cccc4[nH]cc(c34)C[C@H]2N(C)C1` [ERGONOVINE], the IC50 entry (against Leukotriene C4 synthase; in assay [1]; in assay [2] (insect cells); on Estrogen receptor beta; in assay [3]; in assay [4]) was “Not Active” each time. In assay [5] (sf9), the IC50 entry is “Not Active”. The inhibition constant (Ki) result in assay [1] and in assay [4] was “Not Active” each time.

As for `Nc1ccc2c3c(cccc13)C(=O)NC2=O`, the IC50 result (on Leukotriene C4 synthase; in assay [1]; in assay [2] (insect cells); at Estrogen receptor beta; in assay [3]; in assay [4]) was “Not Active” each time. In addition, the 50% inhibitory concentration (IC50) result in assay [5] (sf9) is reported as “Not Active”. The Ki entry in assay [1] and in assay [4] was “Not Active” in each case.

In the case of `CCN(CC)CCOCCC1=CCC2CC1C2(C)C` (configuration not stated) [MYRTECAINE], the IC50 entry (on Leukotriene C4 synthase; in assay [1]; in assay [2] (insect cells); against Estrogen receptor beta; in assay [3]; in assay [4]) was “Not Active” throughout. Also, the half-maximal inhibitory concentration (IC50) result in assay [5] (sf9) was “Not Active”. Further, the Ki entry in assay [1] and in assay [4] was “Not Active” each time.
